Measurements from article PMC12655527, “An Investigational Study on the Role of ADME Agents’ Genetic Variation on DD217 Pharmacokinetics and Safety Profile” (Pharmaceuticals, 2025).
Several values for one entry are separate records, joined by “and”; a condition that tells them apart may be missing. Equal values may be shown once. Read-outs that look alike come from different tables or passages of the source.

What was measured:
[1] = Pharmacokinetic parameters (Tmax, AUClast, Cmax) of DD217 in phase II trial patients; assay type: in vivo, human (patients undergoing knee replacement surgery); set-up: AUClast (area under the concentration-time curve up to the last measurable point) / Cmax (maximum plasma concentration): unit not given here; conditions: for AUC(0-t) / Cmax / Tmax: human, plasma, oral; for AUClast (area under the concentration-time curve up to the last measurable point) / Cmax (maximum plasma concentration) / Tmax (time to maximum plasma concentration): individual patients
Description: The design, eligibility criteria, and outcomes of the phase II clinical trial evaluating the safety and tolerability of DD217 (NCT05189002, ClinicalTrials.gov) have been described previously. Briefly, this was a multicenter, double-blind, randomized, prospective phase II study designed to determine the optimal dosing regimen and to assess the safety and efficacy of DD217 for the prevention of venous thromboembolism (VTE) in patients undergoing knee replacement surgery. Patients were randomized into one of three groups: two groups received oral DD217 at doses of 40 mg or 60 mg once daily, starting on the morning of the first postoperative day, and one group received the active comparator, dalteparin sodium. The treatment duration was 14 days.
In total, data from 52 patients who underwent knee replacement surgery were included in the analysis. Of these, 34 patients received DD217 at daily doses of 40 mg (n = 16) or 60 mg (n = 18), and 18 patients received dalteparin sodium.
To characterize the pharmacokinetic profile of DD217 in our study, three parameters were assessed: Cmax, Tmax, and AUClast.

Factor Xa = system: Factor Xa; set-up: method as in PMID 29468977; conditions: preclinical studies; cited from earlier work

## CC(=N)N(C)c1ccc(C(=O)Nc2ccc(C)cc2C(=O)Nc2ccc(Cl)cn2)cc1.Cl [DD217, N-(5-chloropyridin-2-yl)-5-methyl-2-[4-(N-methylacetimidamido)benzamido]benzamide hydrochloride]
[1]; 40 mg, CYP2C19 *1/*17, *17/*17, RM + UM (n = 9), mean ± SD, read-out: AUClast
  AUC(0-t): 47.7 ± 42.6 ng·h/mL
[1]; 40 mg, CYP2C19 *1/*17, *17/*17, RM + UM (n = 9), mean ± SD, read-out: Cmax
  Cmax: 5.8 ± 6.73 ng/mL
[1]; 40 mg, CYP2C19 *1/*17, *17/*17, RM + UM (n = 9), mean ± SD, read-out: Tmax
  Tmax: 7.67 ± 6.71 h
[1]; 40 mg, CYP3A *1/*1, EM (n = 12), mean ± SD, read-out: AUClast
  AUC(0-t): 40 ± 42.1 ng·h/mL
[1]; 40 mg, CYP3A *1/*1, EM (n = 12), mean ± SD, read-out: Cmax
  Cmax: 5.02 ± 6.92 ng/mL
[1]; 40 mg, CYP3A *1/*1, EM (n = 12), mean ± SD, read-out: Tmax
  Tmax: 11.8 ± 9.5 h
[1]; 60 mg/day, ABCB1 rs1045642 C/C (n 3), read-out: AUClast (SD)
  AUC(0-t): 197 ng·h/mL
[1]; 60 mg/day, ABCB1 rs1045642 C/C (n 3), read-out: Cmax (SD)
  Cmax: 15.9 ng/mL
[1]; 60 mg/day, ABCB1 rs1045642 C/C (n 3), read-out: Tmax (SD)
  Tmax: 2 h
[1]; 60 mg/day, ABCB1 rs1045642 T/C (n 8), read-out: AUClast (SD)
  AUC(0-t): 53.9 ng·h/mL
[1]; 60 mg/day, ABCB1 rs1045642 T/C (n 8), read-out: Cmax (SD)
  Cmax: 5.54 ng/mL
[1]; 60 mg/day, ABCB1 rs1045642 T/C (n 8), read-out: Tmax (SD)
  Tmax: 7.75 h
[1]; 60 mg/day, ABCB1 rs1045642 T/T (n 7), read-out: AUClast (SD)
  AUC(0-t): 27.6 ng·h/mL
[1]; 60 mg/day, ABCB1 rs1045642 T/T (n 7), read-out: Cmax (SD)
  Cmax: 2.42 ng/mL
[1]; 60 mg/day, ABCB1 rs1045642 T/T (n 7), read-out: Tmax (SD)
  Tmax: 13.6 h
[1]; 60 mg/day, ABCB1 rs1128503 C/C (n 4), read-out: AUClast (SD)
  AUC(0-t): 164 ng·h/mL
[1]; 60 mg/day, ABCB1 rs1128503 C/C (n 4), read-out: Cmax (SD)
  Cmax: 14.1 ng/mL
[1]; 60 mg/day, ABCB1 rs1128503 C/C (n 4), read-out: Tmax (SD)
  Tmax: 2 h
[1]; 60 mg/day, ABCB1 rs1128503 T/C (n 10), read-out: AUClast (SD)
  AUC(0-t): 50.5 ng·h/mL
[1]; 60 mg/day, ABCB1 rs1128503 T/C (n 10), read-out: Cmax (SD)
  Cmax: 4.66 ng/mL
[1]; 60 mg/day, ABCB1 rs1128503 T/C (n 10), read-out: Tmax (SD)
  Tmax: 9 h
[1]; 60 mg/day, ABCB1 rs1128503 T/T (n 4), read-out: AUClast (SD)
  AUC(0-t): 14 ng·h/mL
[1]; 60 mg/day, ABCB1 rs1128503 T/T (n 4), read-out: Cmax (SD)
  Cmax: 1.49 ng/mL
[1]; 60 mg/day, ABCB1 rs1128503 T/T (n 4), read-out: Tmax (SD)
  Tmax: 16.2 h
[1]; 60 mg/day, ABCB1 rs2032582 G/G (n 4), read-out: AUClast (SD)
  AUC(0-t): 164 ng·h/mL
[1]; 60 mg/day, ABCB1 rs2032582 G/G (n 4), read-out: Cmax (SD)
  Cmax: 14.1 ng/mL
[1]; 60 mg/day, ABCB1 rs2032582 G/G (n 4), read-out: Tmax (SD)
  Tmax: 2 h
[1]; 60 mg/day, ABCB1 rs2032582 T/G (n 9), read-out: AUClast (SD)
  AUC(0-t): 51.6 ng·h/mL
[1]; 60 mg/day, ABCB1 rs2032582 T/G (n 9), read-out: Cmax (SD)
  Cmax: 4.87 ng/mL
[1]; 60 mg/day, ABCB1 rs2032582 T/G (n 9), read-out: Tmax (SD)
  Tmax: 9.56 h
[1]; 60 mg/day, ABCB1 rs2032582 T/T (n 5), read-out: AUClast (SD)
  AUC(0-t): 19.4 ng·h/mL
[1]; 60 mg/day, ABCB1 rs2032582 T/T (n 5), read-out: Cmax (SD)
  Cmax: 1.74 ng/mL
[1]; 60 mg/day, ABCB1 rs2032582 T/T (n 5), read-out: Tmax (SD)
  Tmax: 13.8 h
[1]; 60 mg/day, ABCB1 rs4148738 C/C (n 5), read-out: AUClast (SD)
  AUC(0-t): 18.9 ng·h/mL
[1]; 60 mg/day, ABCB1 rs4148738 C/C (n 5), read-out: Cmax (SD)
  Cmax: 1.78 ng/mL
[1]; 60 mg/day, ABCB1 rs4148738 C/C (n 5), read-out: Tmax (SD)
  Tmax: 10.6 h
[1]; 60 mg/day, ABCB1 rs4148738 C/T (n 9), read-out: AUClast (SD)
  AUC(0-t): 51.9 ng·h/mL
[1]; 60 mg/day, ABCB1 rs4148738 C/T (n 9), read-out: Cmax (SD)
  Cmax: 4.85 ng/mL
[1]; 60 mg/day, ABCB1 rs4148738 C/T (n 9), read-out: Tmax (SD)
  Tmax: 11.3 h
[1]; 60 mg/day, ABCB1 rs4148738 T/T (n 4), read-out: AUClast (SD)
  AUC(0-t): 164 ng·h/mL
[1]; 60 mg/day, ABCB1 rs4148738 T/T (n 4), read-out: Cmax (SD)
  Cmax: 14.1 ng/mL
[1]; 60 mg/day, ABCB1 rs4148738 T/T (n 4), read-out: Tmax (SD)
  Tmax: 2 h
[1]; 60 mg, CYP2C8 rs10509681 T/C (n 2), read-out: AUClast (SD)
  AUC(0-t): 62.5 ng·h/mL
[1]; 60 mg, CYP2C8 rs10509681 T/C (n 2), read-out: Cmax (SD)
  Cmax: 5.69 ng/mL
[1]; 60 mg, CYP2C8 rs10509681 T/C (n 2), read-out: Tmax (h, SD)
  Tmax: 3 h
[1]; 60 mg, CYP2C8 rs10509681 T/T (n 16), read-out: AUClast (SD)
  AUC(0-t): 68.2 ng·h/mL
[1]; 60 mg, CYP2C8 rs10509681 T/T (n 16), read-out: Cmax (SD)
  Cmax: 6.11 ng/mL
[1]; 60 mg, CYP2C8 rs10509681 T/T (n 16), read-out: Tmax (h, SD)
  Tmax: 9.81 h
[1]; 60 mg, CYP2C8 rs11572080 C/C (n 16), read-out: AUClast (SD)
  AUC(0-t): 68.2 ng·h/mL
[1]; 60 mg, CYP2C8 rs11572080 C/C (n 16), read-out: Cmax (SD)
  Cmax: 6.11 ng/mL
[1]; 60 mg, CYP2C8 rs11572080 C/C (n 16), read-out: Tmax (h, SD)
  Tmax: 9.81 h
[1]; 60 mg, CYP2C8 rs11572080 C/T (n 2), read-out: AUClast (SD)
  AUC(0-t): 62.5 ng·h/mL
[1]; 60 mg, CYP2C8 rs11572080 C/T (n 2), read-out: Cmax (SD)
  Cmax: 5.69 ng/mL
[1]; 60 mg, CYP2C8 rs11572080 C/T (n 2), read-out: Tmax (h, SD)
  Tmax: 3 h
[1]; 60 mg, CYP2C9 *1/*1, NM (n = 11), mean ± SD, read-out: AUClast
  AUC(0-t): 37.5 ± 42.4 ng·h/mL
[1]; 60 mg, CYP2C9 *1/*1, NM (n = 11), mean ± SD, read-out: Cmax
  Cmax: 3.66 ± 4.07 ng/mL
[1]; 60 mg, CYP2C9 *1/*1, NM (n = 11), mean ± SD, read-out: Tmax
  Tmax: 12.9 ± 9.14 h
[1]; 60 mg, CYP2C9 *2/*3, PM (n = 2), mean ± SD, read-out: AUClast
  AUC(0-t): 177 ± 224 ng·h/mL
[1]; 60 mg, CYP2C9 *2/*3, PM (n = 2), mean ± SD, read-out: Cmax
  Cmax: 11.3 ± 13.6 ng/mL
[1]; 60 mg, CYP2C9 *2/*3, PM (n = 2), mean ± SD, read-out: Tmax
  Tmax: 2.5 ± 2.12 h
[1]; 60 mg, CYP2C19 *1/*1, NM (n = 8), mean ± SD, read-out: AUClast
  AUC(0-t): 98 ± 124 ng·h/mL
[1]; 60 mg, CYP2C19 *1/*1, NM (n = 8), mean ± SD, read-out: Cmax
  Cmax: 8.44 ± 9.71 ng/mL
[1]; 60 mg, CYP2C19 *1/*1, NM (n = 8), mean ± SD, read-out: Tmax
  Tmax: 8.75 ± 10.1 h
[1]; 60 mg, CYP2C19 *1/*17, RM (n = 6), mean ± SD, read-out: AUClast
  AUC(0-t): 50.5 ± 51.6 ng·h/mL
[1]; 60 mg, CYP2C19 *1/*17, RM (n = 6), mean ± SD, read-out: Cmax
  Cmax: 4.5 ± 4.61 ng/mL
[1]; 60 mg, CYP2C19 *1/*17, RM (n = 6), mean ± SD, read-out: Tmax
  Tmax: 9.17 ± 7.33 h
[1]; 60 mg, CYP3A *1/*1, EM (n = 16), mean ± SD, read-out: AUClast
  AUC(0-t): 52.7 ± 63.3 ng·h/mL
[1]; 60 mg, CYP3A *1/*1, EM (n = 16), mean ± SD, read-out: Cmax
  Cmax: 5.32 ± 6.58 ng/mL
[1]; 60 mg, CYP3A *1/*1, EM (n = 16), mean ± SD, read-out: Tmax
  Tmax: 9.75 ± 8.93 h
[1]; 40 mg/day oral
  AUClast (area under the concentration-time curve up to the last measurable point): 39.7 and 128.526 and 20.601 and 13.049 and 18.213 and 10.234 and 34.56 and 101.166 and 120.462 and 21.211 and 2.735 and 84.631 and 10.412 and 4.928 and 48.451 and 17.602
  Cmax (maximum plasma concentration): 3.95 and 22.764 and 1.686 and 1.136 and 1.739 and 0.656 and 5.76 and 15.011 and 19.462 and 3.535 and 0.456 and 5.034 and 0.72 and 0.405 and 3.119 and 1.379
  Tmax (time to maximum plasma concentration): 1 h and 12 h
[1]; 60 mg/day oral
  AUClast (area under the concentration-time curve up to the last measurable point): 19.08 and 237.522 and 35.852 and 16.597 and 21.462 and 105.854 and 58.513 and 4.589 and 25.375 and 51.929 and 37.407 and 14.483 and 13.976 and 62.698 and 11.57 and 152.359 and 11.552 and 335.306
  Cmax (maximum plasma concentration): 1.663 and 25.28 and 3.324 and 1.155 and 1.59 and 9.707 and 7.329 and 0.325 and 2.291 and 4.963 and 2.974 and 1.614 and 1.37 and 8.694 and 1.712 and 13.569 and 0.613 and 20.897
  Tmax (time to maximum plasma concentration): 1 h and 12 h and 5 h
Factor Xa
  affinity for the active site of factor Xa: high affinity
